# Experiments:
# ER-α = biological target: T1, ER-α (Homo sapiens, UniProt P03372); test: Breast Cancer Cell ER-α In Cell Western Assay (SP1); assay type: cell-based; conditions: MCF-7 cells, SP1 antibody, 4 or 24 hr post compound addition; for Emax: MCF7, read-out: ER-α In Cell Western Assay (SP1) Max Response; for DC50: read-out: ER-α In Cell Western Assay (SP1) IC50
# T1 sequence (P03372 1-595): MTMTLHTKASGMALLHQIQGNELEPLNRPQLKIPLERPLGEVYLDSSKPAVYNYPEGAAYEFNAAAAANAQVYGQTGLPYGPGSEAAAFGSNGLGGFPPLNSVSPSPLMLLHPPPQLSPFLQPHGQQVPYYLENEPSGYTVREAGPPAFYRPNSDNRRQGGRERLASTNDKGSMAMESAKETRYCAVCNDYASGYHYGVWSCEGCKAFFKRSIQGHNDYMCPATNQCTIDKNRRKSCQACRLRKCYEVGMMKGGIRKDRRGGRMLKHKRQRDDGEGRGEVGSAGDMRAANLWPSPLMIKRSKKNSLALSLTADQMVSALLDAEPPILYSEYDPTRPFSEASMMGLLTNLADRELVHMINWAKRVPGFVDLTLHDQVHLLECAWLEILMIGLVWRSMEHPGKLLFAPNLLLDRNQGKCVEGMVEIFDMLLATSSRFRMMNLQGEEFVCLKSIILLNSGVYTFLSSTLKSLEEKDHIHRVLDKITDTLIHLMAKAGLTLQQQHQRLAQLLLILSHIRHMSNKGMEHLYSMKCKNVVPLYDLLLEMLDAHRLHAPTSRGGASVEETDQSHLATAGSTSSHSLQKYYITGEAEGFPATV
# Method in brief: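 ER-α protein levels measured by in-cell western with SP1 antibody, ratioed to DRAQ5 DNA signal and given as percent of untreated controls. Compounds added at 0.3–0.000003 μM final (eleven semilog points) to adherent MCF-7 cells in stripped serum; exposure 4 or 24 h before fixation.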
# MCF-7 cells = test: Breast Cancer Cell Viability Assay (MCF-7, CellTiter-Glo); assay type: cell-based; conditions: 5 days' compound exposure; for IC50: Homo sapiens, MCF7, 120 h
# Method in brief: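 Eleven-point semilog compound series, final 0.3-0.000003 μM, added to overnight-adhered MCF-7 cells (320/well; RPMI, 10% FBS, 20 mM HEPES) for 5 days. Viability read by CellTiter-Glo luminescence, background from medium without cells subtracted, expressed relative to untreated cells.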
Compound,Emax (ER-α) [%],MCF7 Viability Assay Max Response (MCF-7 cells),IC50 (MCF-7 cells) [nM],DC50 (ER-α) [nM]
"CC/C(=C(/c1ccc(/C=C/C(=O)O)cc1)c1ccc2[nH]ncc2c1)c1ccccc1OC [Compound 12, (E)-3-(4-((E)-1-(1H-Indazol-5-yl)-2-(2-methoxyphenyl)but-1-en-1-yl)phenyl)acrylic acid]",≥ 40,++ (++ = a single % value ≧ 40%),≤ 100,
"CC/C(=C(/c1ccc(/C=C/C(=O)O)cc1)c1ccc2[nH]ncc2c1C)c1ccccc1 [Compound 36, (E)-3-(4-((E)-1-(4-Methyl-1H-indazol-5-yl)-2-phenylbut-1-en-1-yl)phenyl)acrylic acid]",≥ 40,++ (++ = a single % value ≧ 40%),≤ 100,≤ 100
"CC/C(=C(/c1ccc(/C=C/C(=O)O)cc1)c1ccc2[nH]ncc2c1Cl)c1ccc(F)cc1Cl [Compound 73, (E)-3-(4-((E)-1-(4-Chloro-1H-indazol-5-yl)-2-(2-chloro-4-fluorophenyl)but-1-en-1-yl)phenyl)acrylic acid]",≥ 40,++ (++ = a single % value ≧ 40%),≤ 100,≤ 100
"CC/C(=C(/c1ccc(/C=C/C(=O)O)cc1)c1ccc2[nH]ncc2c1)c1ccc(Cl)cc1C [Compound 41, (E)-3-(4-((E)-2-(4-Chloro-2-methylphenyl)-1-(1H-indazol-5-yl)but-1-en-1-yl)phenyl)acrylic acid]",≥ 40,++ (++ = a single % value ≧ 40%),≤ 100,≤ 100
"CC/C(=C(/c1ccc(/C=C/C(=O)O)cc1)c1ccc2c(cnn2C(F)F)c1)c1ccc(F)cc1Cl [Compound 148, (E)-3-(4-((E)-2-(2-Chloro-4-fluorophenyl)-1-(1-(difluoromethyl)-1H-indazol-5-yl)but-1-en-1-yl)phenyl)acrylic acid]",≥ 40,++ (++ = a single % value ≧ 40%),≤ 100,≤ 100
"CC/C(=C(/c1ccc(/C=C/C(=O)O)cc1)c1ccc2[nH]ncc2c1)c1cccc(F)c1Cl [Compound 23, (E)-3-(4-((E)-2-(2-Chloro-3-fluorophenyl)-1-(1H-indazol-5-yl)but-1-en-1-yl)phenyl)acrylic acid]",≥ 40,++ (++ = a single % value ≧ 40%),≤ 100,≤ 100
"CC/C(=C(/c1ccc(/C=C/C(=O)O)cc1)c1ccc2[nH]ncc2c1)c1ccc(OC)cc1C [Compound 128, (E)-3-(4-((E)-1-(1H-Indazol-5-yl)-2-(4-methoxy-2-methylphenyl)but-1-en-1-yl)phenyl)acrylic acid]",≥ 40,++ (++ = a single % value ≧ 40%),≤ 100,≤ 100
"CC/C(=C(/c1ccc(/C=C/C(=O)O)cc1)c1ccc2[nH]ncc2c1)c1c(C)cccc1Cl [Compound 34, (E)-3-(4-((E)-2-(2-Chloro-6-methylphenyl)-1-(1H-indazol-5-yl)but-1-en-1 yl)phenyl)acrylic acid]",≥ 40,++ (++ = a single % value ≧ 40%),≤ 100,≤ 100
"CC/C(=C(/c1ccc(/C=C/C(=O)O)cc1)c1ccc2[nH]ncc2c1)c1ccccc1C [Compound 9, (E)-3-(4-((E)-1-(1H-Indazol-5-yl)-2-(o-tolyl)but-1-en-1-yl)phenyl)acrylic acid]",≥ 40,++ (++ = a single % value ≧ 40%),≤ 100,
"CC/C(=C(/c1ccc(/C=C/C(=O)O)cc1)c1ccc2[nH]ncc2c1)c1ccc(O)cc1 [Compound 95, (E)-3-(4-((E)-2-(4-Hydroxyphenyl)-1-(1H-indazol-5-yl)but-1-en-1-yl)phenyl)acrylic acid]",≥ 40,++ (++ = a single % value ≧ 40%),≤ 100,≤ 100
"O=C(O)/C=C/c1ccc(/C(=C(/CCO)c2ccccc2)c2ccc3[nH]ncc3c2)cc1 [Compound 46, (E)-3-(4-((E)-4-Hydroxy-1-(1H-indazol-5-yl)-2-phenylbut-1-en-1-yl)phenyl)acrylic acid]",≥ 40,+ (+ = a single % value < 40%),> 100,> 100
"CC/C(=C(/c1ccc(/C=C/C(=O)O)cc1)c1ccc2[nH]ncc2c1)c1ccc(F)c(C)c1 [Compound 29, (E)-3-(4-((E)-2-(4-Fluoro-3-methylphenyl)-1-(1H-indazol-5-yl)but-1-en-1-yl)phenyl)acrylic acid]",≥ 40,++ (++ = a single % value ≧ 40%),≤ 100,≤ 100
"CC/C(=C(/c1ccc(/C=C/C(=O)O)cc1)c1ccc2[nH]ncc2c1)c1ccc(F)cc1C#N [Compound 138, (E)-3-(4-((E)-2-(2-Cyano-4-fluorophenyl)-1-(1H-indazol-5-yl)but-1-en-1-yl)phenyl)acrylic acid]",≥ 40,++ (++ = a single % value ≧ 40%),≤ 100,≤ 100
"CC/C(=C(/c1ccc(/C=C/C(=O)O)cc1)c1ccc2[nH]ncc2c1F)c1ccc(Cl)cc1C [Compound 70, (E)-3-(4-((E)-2-(4-Chloro-2-methylphenyl)-1-(4-fluoro-1H-indazol-5-yl)but-1-en-1-yl)phenyl)acrylic acid]",≥ 40,++ (++ = a single % value ≧ 40%),≤ 100,≤ 100
"CC/C(=C(/c1ccc(/C=C/C(=O)O)cc1)c1ccc2[nH]ncc2c1)c1ccc(OC)cc1Cl [Compound 121, (E)-3-(4-((E)-2-(2-Chloro-4-methoxyphenyl)-1-(1H-indazol-5-yl)but-1-en-1-yl)phenyl)acrylic acid]",≥ 40,++ (++ = a single % value ≧ 40%),≤ 100,≤ 100
"CC/C(=C(/c1ccc(/C=C/C(=O)O)cc1)c1cc(Cl)c2[nH]ncc2c1)c1ccccc1 [Compound 35, (E)-3-(4-((E)-1-(7-Chloro-1H-indazol-5-yl)-2-phenylbut-1-en-1-yl)phenyl)acrylic acid]",≥ 40,++ (++ = a single % value ≧ 40%),≤ 100,≤ 100
"CC/C(=C(/c1ccc(/C=C/C(=O)O)cc1)c1ccc2[nH]ncc2c1)c1ccccc1CO [Compound 8, (E)-3-(4-((E)-2-(2-(Hydroxymethyl)phenyl)-1-(1H-indazol-5-yl)but-1-en-1-yl)phenyl)acrylic acid]",≥ 40,++ (++ = a single % value ≧ 40%),> 100,≤ 100
"CC/C(=C(/c1ccc(/C=C/C(=O)O)cc1)c1ccc2[nH]ncc2c1F)c1ccc(F)cc1Cl [Compound 61, (E)-3-(4-((E)-2-(2-Chloro-4-fluorophenyl)-1-(4-fluoro-1H-indazol-5-yl)but-1-en-1-yl)phenyl)acrylic acid]",≥ 40,++ (++ = a single % value ≧ 40%),≤ 100,≤ 100
"CC/C(=C(\c1ccc2[nH]ncc2c1)c1ccc(/C=C/C(=O)O)cc1F)c1ccccc1 [Compound 105, (E)-3-(4-((Z)-1-(1H-Indazol-5-yl)-2-phenylbut-1-en-1-yl)-3-fluorophenyl)acrylic acid]",≥ 40,++ (++ = a single % value ≧ 40%),≤ 100,≤ 100
"O=C(O)/C=C/c1ccc(/C(=C(\c2ccc(Cl)cc2Cl)C2CC2)c2ccc3[nH]ncc3c2F)cc1 [Compound 123, (E)-3-(4-((E)-2-Cyclopropyl-2-(2,4-dichlorophenyl)-1-(4-fluoro-1H-indazol-5-yl)vinyl)phenyl)acrylic acid]",≥ 40,++ (++ = a single % value ≧ 40%),≤ 100,≤ 100
"CCOC(=O)/C=C/c1ccc(/C(=C(/CC)c2ccc(Cl)cc2Cl)c2ccc3[nH]ncc3c2)cc1 [Compound 112, (E)-Ethyl 3-(4-((E)-2-(2,4-dichlorophenyl)-1-(1H-indazol-5-yl)but-1-en-1-yl)phenyl)acrylate]",≥ 40,+ (+ = a single % value < 40%),≤ 100,≤ 100
"CC/C(=C(/c1ccc(/C=C/C(=O)O)cc1)c1cc2cn[nH]c2cc1Cl)c1ccccc1 [Compound 50, (E)-3-(4-((E)-1-(6-Chloro-1H-indazol-5-yl)-2-phenylbut-1-en-1-yl)phenyl)acrylic acid]",≥ 40,++ (++ = a single % value ≧ 40%),≤ 100,≤ 100

# From patent US8455534B2, “Estrogen receptor modulators and uses thereof” (Aragon Pharmaceuticals, Inc., priority 2010, dated 2013)
